Measurements: article PMC7344389, “Discovery of Anti-Amoebic Inhibitors from Screening the MMV Pandemic Response Box on Balamuthia mandrillaris, Naegleria fowleri, and Acanthamoeba castellanii” (Pathogens, 2020)

System: Balamuthia mandrillaris trophozoites
Assay: CellTiter-Glo 2.0 trophocidal assay, B. mandrillaris
Type: cell-based
Conditions: for IC50: 72 h, CTG method, duplicate twofold serial dilutions from 10 µM, mean ± SD; for Selectivity Index (A549 IC50/B. mandrillaris IC50): SI = (IC50 A549)/(IC50 Amoeba)
Description: Pathogenic Balamuthia mandrillaris (CDC:[…]; American Type Culture Collection (ATCC) 50209), a GAE isolate, isolated from a pregnant baboon at the San Diego Zoo in 1986 was donated by Luis Fernando […] University, Mexico [43]. Trophozoites were routinely grown axenically in Balamuthia mandrillaris Itson (BMI) media at 37 °C, 5% CO2 in vented 75 cm^2 tissue culture flasks (Olympus, El Cajon, CA, USA), until the cells were 80-90% confluent. For sub-culturing, 0.25% Trypsin-EDTA (Gibco, Gaithersburg, MD, USA) cell detachment reagent was used to detach the cells from the culture flasks. The cells were collected by centrifugation at 4000 rpm at 4 °C. Complete BMI media is produced by the addition of 10% fetal bovine serum (FBS) and 125 μg of penicillin/streptomycin antibiotics. The trophocidal activity of compounds was assessed using the CellTiter-Glo 2.0 luminescent viability assay (Promega, Madison, WI, USA), as previously described. Trophozoites were routinely cultured as described above and only logarithmic trophozoites were used. […] Inhibitors were assessed for percent inhibition using the criteria of ≤33% growth inhibition (no inhibition), 33-67% growth inhibition (moderate inhibition), and ≥67% growth inhibition (strong inhibition). […] We used this process to reduce the number of potential false positives. […] All assays were incubated at each of the parasites' representative growth temperatures, described above, for 72 h. At the 72 h time point, 25 μL of CellTiter-Glo 2.0 reagent was added to all wells of the 96-well plates using the Biomek NX^P automated workstation. The plates were protected from light and contents were mixed using an orbital shaker at 300 rpm at room temperature for 2 min to induce cell lysis. After shaking, the plates were equilibrated at room temperature for 10 min to stabilize the luminescent signal. The adenosine triphosphate (ATP) luminescent signal (relative light units; RLUs) was measured at 490 nm with a SpectraMax I3X plate reader (Molecular Devices, Sunnyvale, CA, USA). Drug inhibitory concentration (IC50) curves were generated using total ATP RLUs, where controls were calculated as the average of replicates using the Levenberg-Marquardt algorithm, using DMSO as the normalization control, as defined in Collaborative Drug Discovery Inc. (CDD) Vault (Burlingame, CA, USA). Values reported are from a minimum of two biological replicates with standard deviations.

Compound	IC50 (Balamuthia mandrillaris) [µM]	Selectivity Index (A549 IC50/B. mandrillaris IC50)	potency against B. mandrillaris, in words (dose-response, CTG)	IC50 [µM]
C[C@@H](c1nc(-c2ccc(C#N)cc2)cs1)[C@](O)(Cn1cncn1)c1ccc(F)cc1F [Ravuconazole]	> 10	–	–	–
Cc1[nH]c2ccccc2c1CCNCc1ccc(/C=C/C(=O)NO)cc1 [Panobinostat]	0.39 ± 0.04	<0.79	nanomolar potency	–
CN(Cc1ccc(C(C)(C)C)cc1)Cc1cccc2ccccc12 [Butenafine]	> 10	–	–	–
CN(C/C=C/C#CC(C)(C)C)Cc1cccc2ccccc12 [Terbinafine]	> 10	–	–	–
CC(=O)Oc1ccccc1C(=O)Nc1ncc([N+](=O)[O-])s1 [Nitazoxanide]	≤ 10	≥1.16	–	8.6 ± 1.98
